{"source": "patent US20230331685A1", "about": "“HERBICIDAL COMPOUNDS AND METHODS OF USE THEREOF” (AG Plenus Ltd, priority 2020, published 2023)", "type_in_all_cases": "in vivo", "key": {"Digitaria sanguinalis": {"system": "Digitaria sanguinalis", "assay": "LTP post-emergence greenhouse test", "settings": "Dosage 2000 g/ha"}, "Phalaris paradoxa [1]": {"system": "Phalaris paradoxa", "assay": "LTP post-emergence greenhouse test", "settings": "Dosage 2000 g/ha"}, "Ambrosia artemisiifolia": {"system": "Ambrosia artemisiifolia", "assay": "LTP pre-emergence greenhouse test", "settings": "Dosage 2000 g/ha", "method": "(§1) A basic panel of 8 weed species (Table 3) were sowed in 4×4×7 cm plastic pots containing inert sand (Sweet sand), intensively washed using osmosis water. Each specie was sowed in a separate pot. In each pot 10-15 seeds were sowed according to the specie viability. Sowing was performed one day before application. The plants were grown for 21 days in a controlled greenhouse (26±2° C. day 20±2° C. night). Hood irrigation (tap water+Shefer 5:3:8 8 mM) was given at a 50% water content by weight. Compounds were soluble in water (DDW), and commercial herbicide control was soluble in formulation B (Table 4). Application was conducted with an industrial sprayer (TeeJet 6502E nozzle) at a rate of 2 kg/ha and spray volume of […]. Pre-emergence advanced dose response experiment application was conducted at six rates between 1-0.0312 kg/ha and spray volume of […]. Percentage of emergence was evaluated at 15 DAA. Visual phenotyping was recorded using a scale of 0-6 (0: no visible effect, 6: maximum effect) at 18 DAA. All experiments included an untreated control, a solvent control and a positive control (commercial herbicide A.I.). […] Statistical analysis for plant emergence determined by % emergence ≥50 and T test (pval≤0.05), as well as Wilcox test (pval≤0.05)."}, "Eragrostis tef": {"system": "Eragrostis tef", "assay": "LTP pre-emergence greenhouse test", "settings": "Dosage 2000 g/ha", "method": "as §1"}, "Arabidopsis thaliana [2]": {"system": "Arabidopsis thaliana", "assay": "LTP pre-emergence greenhouse test", "settings": "Dosage 2000 g/ha", "method": "as §1"}, "Phalaris paradoxa [3]": {"system": "Phalaris paradoxa", "assay": "LTP pre-emergence greenhouse test", "settings": "Dosage 2000 g/ha", "method": "as §1"}, "Sinapis alba": {"system": "Sinapis alba", "assay": "LTP pre-emergence greenhouse test", "settings": "Dosage 2000 g/ha", "method": "as §1"}, "Matricaria chamomilla": {"system": "Matricaria chamomilla", "assay": "LTP pre-emergence greenhouse test", "settings": "Dosage 2000 g/ha", "method": "as §1"}, "Amaranthus palmeri": {"system": "Amaranthus palmeri", "assay": "LTP pre-emergence greenhouse test", "settings": "Dosage 2000 g/ha", "method": "as §1"}, "Lolium perenne": {"system": "Lolium perenne", "assay": "LTP pre-emergence greenhouse test", "settings": "Dosage 2000 g/ha", "method": "as §1"}, "Setaria viridis": {"system": "Setaria viridis", "assay": "LTP pre-emergence greenhouse test", "settings": "Dosage 2000 g/ha", "method": "as §1"}, "Poa annua [4]": {"system": "Poa annua", "assay": "LTP pre-emergence greenhouse test", "settings": "Dosage 2000 g/ha", "method": "as §1"}, "[5]": {"system": "monocot and eudicot weeds species", "assay": "In-planta LTP weed panel, overall assessment", "settings": "monocot and eudicot weeds species; both post-emergence and pre-emergence; most of the species tested"}, "Phalaris minor": {"system": "Phalaris minor", "assay": "LTP post-emergence greenhouse test", "settings": "Dosage 2000 g/ha"}, "Arabidopsis thaliana [6]": {"system": "Arabidopsis thaliana", "assay": "HTPS pre-emergence application on dicot model plant", "method": "The plates were placed in a controlled greenhouse in a random order inside a bath which allows flooding irrigation with tap water supplemented with a fertilizer. Applied compounds were dissolved into a final solution of 50% acetone, 49.9% DDW, 0.1% tween-20. A 96 well plate was used as a stock plate for preparing application solutions for 8 repeats. Each row contained different concentrations per chemical. Maximal concentration for application was 1.5 Kg/Ha and dilution factor is 2.5. Chemical application was performed one day after thinning out in a chemical hood. […] applied on first two true leaves in each well using 12 channel pipettes. Data collection: RGB (red, green, blue) data for green area per well was documented using camera. Data is collected at a few time points during the experiment: one day after thinning and before chemical application, two-, six- or nine-days post application. During the last two documentations, visual phenotyping was performed. Data analysis: Given RGB results and visual phenotype scores, a student t-test conducted to compare between treatment and control performance for continuous data (RGB) and Fisher exact test to analyze the non-continuous data (phenotypic scores). Dose-Response curves are generated for each treatment to infer ED50 and max. inhibition parameters, using treatment's log concentration range as the […] and normalized green area. […] Plate imaging performed at 11 and 18 DAA. RGB data for green area per well was documented and used to extract % inhibition. Dose-Response curves were built for each treatment to infer EC50, EC75 and EC90 parameters, using treatment's log concentration range as the independent variable and normalized green area as the dependent variable. Treatments were compared to controls performance given RGB results and using student's t-test (p-val≤0.05). Compounds 104-154 were applied in either or both pre- and post-emergence mode to either or both monocot and dicot model plants, following the methods described above. The compounds were applied as a gradient of concentrations as listed above, from which the ED50 was calculated."}, "Poa annua [7]": {"system": "Poa annua", "assay": "LTP post-emergence greenhouse test", "settings": "Dosage 2000 g/ha"}, "Arabidopsis thaliana [8]": {"system": "Arabidopsis thaliana", "assay": "HTPS post-emergence application on miniature dicot model plant", "method": "The plates were placed in a controlled greenhouse in a random order inside a bath which allows flooding irrigation with tap water supplemented with a fertilizer. Applied compounds were dissolved into a final solution of 50% acetone, 49.9% DDW, 0.1% tween-20. A 96 well plate was used as a stock plate for preparing application solutions for 8 repeats. Each row contained different concentrations per chemical. Maximal concentration for application was 1.5 Kg/Ha and dilution factor is 2.5. Chemical application was performed one day after thinning out in a chemical hood. […] applied on first two true leaves in each well using 12 channel pipettes. Data collection: RGB (red, green, blue) data for green area per well was documented using camera. Data is collected at a few time points during the experiment: one day after thinning and before chemical application, two-, six- or nine-days post application. During the last two documentations, visual phenotyping was performed. Data analysis: Given RGB results and visual phenotype scores, a student t-test conducted to compare between treatment and control performance for continuous data (RGB) and Fisher exact test to analyze the non-continuous data (phenotypic scores). Dose-Response curves are generated for each treatment to infer ED50 and max. inhibition parameters, using treatment's log concentration range as the […] variable and normalized green area. Plate imaging performed at 11 and 18 DAA. RGB data for green area per well was documented and used to extract % inhibition. Dose-Response curves were built for each treatment to infer EC50, EC75 and EC90 parameters, using treatment's log concentration range as the independent variable and normalized green area as the dependent variable. Treatments were compared to controls performance given RGB results and using student's t-test (p-val≤0.05). Compounds 104-154 were applied in either or both pre- and post-emergence mode to either or both monocot and dicot model plants, following the methods described above. The compounds were applied as a gradient of concentrations as listed above, from which the ED50 was calculated."}, "Alopecurus myosuroides": {"system": "Alopecurus myosuroides", "assay": "LTP post-emergence greenhouse test", "settings": "Dosage 2000 g/ha"}, "[9]": {"settings": "dose-response of normalized green area"}}, "data": [{"smiles": "C[C@@H](O)[C@@H](N)CCCCC(=O)O", "note": "[Compound 104, (6S,7R)-6-amino-7-hydroxyoctanoic acid]", "values": [{"measurement": "Herbicidal activity (In-planta), LTP-Post emergence, Digitaria sanguinalis", "setting": "Digitaria sanguinalis", "value": 95}, {"measurement": "Herbicidal activity (In-planta), LTP-Post emergence, Phalaris paradoxa", "setting": "Phalaris paradoxa [1]", "value": 80}, {"measurement": "Herbicidal activity (In-planta), LTP-Pre emergence, Ambrosia artemisiifolia", "setting": "Ambrosia artemisiifolia", "value": 0}, {"measurement": "Herbicidal activity (In-planta), LTP-Pre emergence, Eragrostis tef", "setting": "Eragrostis tef", "value": 100}, {"measurement": "Herbicidal activity (In-planta), LTP-Pre emergence, Arabidopsis thaliana", "setting": "Arabidopsis thaliana [2]", "value": "40-80"}, {"measurement": "Herbicidal activity (In-planta), LTP-Pre emergence, Phalaris paradoxa", "setting": "Phalaris paradoxa [3]", "value": 60}, {"measurement": "Herbicidal activity (In-planta), LTP-Pre emergence, Sinapis alba", "setting": "Sinapis alba", "value": "40-60"}, {"measurement": "Herbicidal activity (In-planta), LTP-Pre emergence, Matricaria chamomilla", "setting": "Matricaria chamomilla", "value": 80}, {"measurement": "Herbicidal activity (In-planta), LTP-Pre emergence, Amaranthus palmeri", "setting": "Amaranthus palmeri", "value": 80}, {"measurement": "Herbicidal activity (In-planta), LTP-Pre emergence, Lolium perenne", "setting": "Lolium perenne", "value": 80}, {"measurement": "Herbicidal activity (In-planta), LTP-Pre emergence, Setaria viridis", "setting": "Setaria viridis", "value": 100}, {"measurement": "Herbicidal activity (In-planta), LTP-Pre emergence, Poa annua", "setting": "Poa annua [4]", "value": 100}, {"measurement": "control of weeds (in words)", "setting": "[5]", "value": "excellent control"}, {"measurement": "Herbicidal activity (In-planta), LTP-Post emergence, Phalaris minor", "setting": "Phalaris minor", "value": "20-30"}, {"measurement": "ED50 (g/ha)", "setting": "Arabidopsis thaliana [6]; [9]", "value": 6, "unit": "g/ha"}, {"measurement": "Max Inhibition (%)", "setting": "Arabidopsis thaliana [6]; green area (RGB)", "value": 94, "unit": "%"}, {"measurement": "Herbicidal activity (In-planta), LTP-Post emergence, Poa annua", "setting": "Poa annua [7]", "value": 90}, {"measurement": "Emax", "setting": "Arabidopsis thaliana [8]; Arabidopsis thaliana, post-emergence, green area (RGB), read-out: Max Inhibition (%)", "value": 100, "unit": "%"}, {"measurement": "ED50 (g/ha)", "setting": "Arabidopsis thaliana [8]; [9]", "value": 0.2, "unit": "g/ha"}, {"measurement": "Herbicidal activity (In-planta), LTP-Post emergence, Alopecurus myosuroides", "setting": "Alopecurus myosuroides", "value": 95}]}]}
